Measurements: patent US8685974B2 (Bayer CropScience AG, priority 2009, dated 2014)
Read-outs that look alike come from different tables or passages of the source. Marks after values point to notes of the source that are not given here.

How the values were obtained:
[1] = physchem; details: pH 2.7
[2] = tested on: Pyrenophora teres; assay: In vivo test on Pyrenophora teres (barley net blotch); details: dose of 500 ppm; barley plants; grading 12 days after contamination
Protocol: In Vivo Test on Pyrenophora teres (Barley Net Blotch)
The active ingredients tested are prepared by homogenization in a mixture of acetone/Tween/DMSO, then diluted with water to obtain the desired active material concentration.
Barley plants (Plaisant variety), sown on a 50/50 peat soil-pozzolana substrate in starter cups and grown at 12° C., are treated at the 1-leaf stage (10 cm tall) by spraying with the active ingredient prepared as described above.
Plants, used as controls, are treated with an aqueous solution not containing the active material.
After 24 hours, the plants are contaminated by spraying them with an aqueous suspension of Pyrenophora teres spores (12,000 spores per ml). The spores are collected from a 12-day-old culture. The contaminated barley plants are incubated for 24 hours at about 20° C. and at 100% relative humidity, and then for 12 days at 80% relative humidity.
Grading is carried out 12 days after the contamination, in comparison with the control plants.

[3] = tested on: Fusarium graminearum; assay type: cell-based; details: 50 μM; for % Inhibition of DON/AcDON at 50 μM: 7 days at 28° C.
[4] = tested on: Alternaria solani; assay: Alternaria test (tomato) / protective; assay type: in vivo; details: 500 ppm active compound, protective spray, evaluated 7 days after inoculation
Protocol: Alternaria Test (Tomato)/Protective
Solvent: 49 parts by weight of N,N-dimethylformamide
Emulsifier: 1 part by weight of alkylaryl polyglycol ether
To produce a suitable preparation of active compound, 1 part by weight of active compound is mixed with the stated amounts of solvent and emulsifier, and the concentrate is diluted with water to the desired concentration.
To test for protective activity, young tomato plants are sprayed with the preparation of active compound at the stated application rate. […] The plants then remain at 96% rel. atmospheric humidity and a temperature of 20° C.
Evaluation is carried out 7 days after the inoculation. 0% means an efficacy which corresponds to that of the control, whereas an efficacy of 100% means that no infection is observed.

Compound	log p [1]	protection [2] [%]	% Inhibition of fungal growth at 50 μM [3] [%]	% Inhibition of DON/AcDON at 50 μM [3] [%]	log p (pH 2.3)	efficacy [4] [%]	log p (pH 2.7)
CC(C)Nc1nccc(CC(=O)c2ccc(Cl)s2)n1	2.37						
CN(C)C=CC(=O)c1cc(Br)c(Br)s1 [1-(4,5-Dibromo-2-thienyl)-3-(dimethylamino)prop-2-en-1-one]	2.68						
CN(C)C=CC(=O)c1cc(Br)cs1 [1-(4-Bromo-2-thienyl)-3-(dimethylamino)prop-2-en-1-one]	1.94						
CCC(C)n1cc(-c2ccnc(NC3COC3)n2)c(-c2ccc(Cl)s2)n1 (stereo not shown) [Example 194]		100	90	99	3.09^[a]	95	
Cc1ccc(-c2nn(C(C)C)cc2-c2ccncc2)s1 [Example 199]		95	100	99		89	1.5^[b]
CCC(C)n1cc(-c2ccnc(NC(=O)[C@H](C)O)c2)c(-c2ccc(Cl)s2)n1 (stereo partly shown) [Example 204]		80	56	95		80	3.13^[b]
CC(C)n1cc(-c2ccnc(NC(=O)[C@H](C)O)c2)c(-c2ccc(Cl)s2)n1 [Example 205]		95	84	98		90	2.75^[b]
CCC(C)n1nc(-c2ccc(Cl)s2)c(-c2ccncc2)c1F (stereo not shown) [Example 213]		70				80	2.61^[b]
CCC(C)n1cc(-c2ccnc(NC(=O)COC)c2)c(-c2ccc(Cl)s2)n1 (stereo not shown) [Example 223]		95	79	99		95	3.68^[b]
CCC(C)n1cc(-c2ccnc(NC(=O)Cc3ccccc3)c2)c(-c2ccc(Cl)s2)n1 (stereo not shown) [Example 224]		95				80	4.35^[b]
CCC(C)n1cc(-c2ccnc(NC(=O)N(C)C)c2)c(-c2ccc(Cl)s2)n1 (stereo not shown) [Example 227]		95	100	99		80	2.19^[b]
CCC(C)C(=O)Nc1cc(-c2cn(C(C)CC)nc2-c2ccc(Cl)s2)ccn1 (stereo not shown) [Example 228]		90	49	92		70	4.05^[b]
CCC(C)n1cc(-c2ccnc(NC(=O)CC3CC3)c2)c(-c2ccc(Cl)s2)n1 (stereo not shown) [Example 229]		90	82	98		95	3.81^[b]
CC(C)n1cc(-c2ccnc(NC(=O)c3ccsc3)c2)c(-c2ccc(Cl)s2)n1 [Example 232]		80				80	3.79^[b]
CC(C)n1cc(-c2ccnc(NC(=O)C(C)(C)C)c2)c(-c2ccc(Cl)s2)n1 [Example 233]		90				90	3.87^[b]
CCC(C)n1cc(-c2ccnc(NC(=O)CC(C)C)c2)c(-c2ccc(Cl)s2)n1 (stereo not shown) [Example 235]		95	0	86		95	4.08^[b]
CCOC(=O)Nc1cc(-c2cn(C(C)CC)nc2-c2ccc(Cl)s2)ccn1 (stereo not shown) [Example 236]		95				80	3.92^[b]
CCC(C)n1cc(-c2ccnc(NC(=O)c3cccs3)c2)c(-c2ccc(Cl)s2)n1 (stereo not shown) [Example 238]		80				70	4.37^[b]
CCC(C)n1cc(-c2ccnc(NC(=O)C3CCC3)c2)c(-c2ccc(Cl)s2)n1 (stereo not shown) [Example 240]		90	37	99		95	3.81^[b]
CC(C)OC(=O)Nc1cc(-c2cn(C(C)C)nc2-c2ccc(Cl)s2)ccn1 [Example 242]		70				90	3.85^[b]

Compound	log p [1]	protection [2] [%]	% Inhibition of fungal growth at 50 μM [3] [%]	% Inhibition of DON/AcDON at 50 μM [3] [%]	log p (pH 2.3)	efficacy [4] [%]	log p (pH 2.7)
CC(C)n1cc(-c2ccnc(NC(=O)CC3CC3)c2)c(-c2ccc(Cl)s2)n1 [Example 250]		100	29	99		90	3.37^[b]
CCn1cc(-c2ccnc(NC(=O)CC3CC3)c2)c(-c2ccc(Cl)s2)n1 [Example 253]		100	100	99		95	2.94^[b]
CCn1cc(-c2ccnc(NC(=O)c3ccsc3)c2)c(-c2ccc(Cl)s2)n1 [Example 254]		90				70	3.29^[b]
CCn1cc(-c2ccnc(NC(=O)C(C)(C)C)c2)c(-c2ccc(Cl)s2)n1 [Example 255]		100				90	3.37^[b]
CCOC(=O)Nc1cc(-c2cn(C(C)C)nc2-c2ccc(Cl)s2)ccn1 [Example 259]		80				90	3.46^[b]
CCn1cc(-c2ccnc(NC(=O)COC)c2)c(-c2ccc(Cl)s2)n1 [Example 261]		90	96	98		90	2.78^[b]
CCn1cc(-c2ccnc(NC(=O)Cc3ccccc3)c2)c(-c2ccc(Cl)s2)n1 [Example 262]		90				80	3.48^[b]
CC(C)CC(=O)Nc1cc(-c2cn(C)nc2-c2ccc(Cl)s2)ccn1 [Example 270]		95	49	98		95	2.75^[b]
CC(C)OC(=O)Nc1cc(-c2cn(C)nc2-c2ccc(Cl)s2)ccn1 [Example 274]		80				80	2.9^[b]
COCC(=O)Nc1cc(-c2cn(C)nc2-c2ccc(Cl)s2)ccn1 [Example 276]		80	98	98		90	2.4^[b]
Cn1cc(-c2ccnc(NC(=O)c3ccsc3)c2)c(-c2ccc(Cl)s2)n1 [Example 282]		70				80	2.88^[b]
CC(=O)N(C(C)=O)c1cc(-c2cnn(/C=C/F)c2-c2ccc(Cl)s2)ccn1 [Example 291]		95	18	100		90	3.39^[b]
CC(=O)Nc1cc(-c2cn(/C=C/F)nc2-c2ccc(Cl)s2)ccn1 [Example 293]		90	32	100		80	2.52^[b]
CC(=O)N(C(C)=O)c1cc(-c2cn(/C=C/F)nc2-c2ccc(Cl)s2)ccn1 [Example 297]		80	0	100		90	3.09^[b]
CC(=O)N(C(C)=O)c1cc(-c2cn(C)nc2-c2ccc(Cl)s2)ccn1 [Example 303]		70	83	100		95	2.52^[b]
N#CCCn1cc(-c2ccncc2)c(-c2ccc(F)s2)n1 [Example 340]		70	91	98		94	1.12^[b]
N#CCCn1cc(-c2ccncc2)c(-c2ccc(Br)s2)n1 [Example 350]		90	92	99		80	1.42^[b]
FC(F)Cn1cc(-c2ccncc2)c(-c2ccc(Cl)s2)n1 [Example 363]		90	99	99		100	1.61^[b]
CCOCCn1cc(-c2ccncc2)c(-c2ccc(Cl)s2)n1 [Example 364]		70	100	99		100	1.69^[b]
